System: Energy system protein genes
Assay: DNA chip mRNA expression in yeast, energy system protein genes (Table 4)
Format: cell-based, Saccharomyces cerevisiae S288C
How it was run: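 Measured as treated-to-untreated fluorescence ratio on a full-genome yeast DNA chip. Cells (S288C, YPD, 25° C.) were exposed in log phase for two hours to one chemical, dosed to curb growth without killing.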

Measured: The level of expressed mRNA in the presence of chemical substance/The level of expressed mRNA in the absence of chemical substance

CCCCC[C@H](O)CC(=O)CCc1ccc(O)c(OC)c1 [(13), gingerol]
1.0: yeast gene YBR185C, cells incubated two hours with the chemical substance | yeast gene YDL078C, cells incubated two hours with the chemical substance | yeast gene YGL205W, cells incubated two hours with the chemical substance | yeast gene YGR207C | yeast gene YIR031C, cells incubated two hours with the chemical substance | yeast gene YJR121W, cells incubated two hours with the chemical substance | yeast gene YLL041C, cells incubated two hours with the chemical substance | yeast gene YLR164W, cells incubated two hours with the chemical substance | yeast gene YLR354C, cells incubated two hours with the chemical substance | yeast gene YML129C, cells incubated two hours with the chemical substance | yeast gene YOR178C, cells incubated two hours with the chemical substance | yeast gene YOR221C | yeast gene YPL275W, cells incubated two hours with the chemical substance
2.8: yeast gene YDR001C | yeast gene YML054C
0.4: yeast gene YDR380W | yeast gene YJR048W
2.6: yeast gene YGR244C | yeast gene YHR179W | yeast gene YOL126C
3.4: yeast gene YGR008C | yeast gene YGR192C
2.5: yeast gene YFR015C | yeast gene YNL071W
3.2: yeast gene YNL237W
3.0: yeast gene YFR053C
0.7: yeast gene YBR299W | yeast gene YCR005C | yeast gene YDR377W, cells incubated two hours with the chemical substance | yeast gene YDR529C, cells incubated two hours with the chemical substance | yeast gene YGL134W | yeast gene YGL187C, cells incubated two hours with the chemical substance | yeast gene YJL121C, cells incubated two hours with the chemical substance | yeast gene YKR058W, cells incubated two hours with the chemical substance, 25° C., YPD medium | yeast gene YMR267W, cells incubated two hours with the chemical substance, 25° C., YPD medium
0.6: yeast gene YDL067C, cells incubated two hours with the chemical substance | yeast gene YEL024W, cells incubated two hours with the chemical substance | yeast gene YPR048W, cells incubated two hours with the chemical substance
1.1: yeast gene YGL191W, cells incubated two hours with the chemical substance | yeast gene YGR112W, cells incubated two hours with the chemical substance | yeast gene YJL216C, cells incubated two hours with the chemical substance | yeast gene YOR388C, cells incubated two hours with the chemical substance | yeast gene YPL061W, cells incubated two hours with the chemical substance
3.3: yeast gene YMR105C
1.9: yeast gene YNL037C
2.4: yeast gene YDR231C | yeast gene YER178W | yeast gene YPL171C
2.3: yeast gene YIL160C | yeast gene YMR089C | yeast gene YPR026W
1.6: yeast gene YBL058W, cells incubated two hours with the chemical substance | yeast gene YEL047C, cells incubated two hours with the chemical substance | yeast gene YEL071W, cells incubated two hours with the chemical substance | yeast gene YJL045W, cells incubated two hours with the chemical substance | yeast gene YMR261C, cells incubated two hours with the chemical substance | yeast gene YPL031C, cells incubated two hours with the chemical substance
3.7: yeast gene YOL165C
1.7: yeast gene YIL111W | yeast gene YLR273C
2.0: yeast gene YBR145W | yeast gene YIL045W | yeast gene YIL172C | yeast gene YKL035W
1.4: yeast gene YBR196C | yeast gene YOL157C
4.0: yeast gene YCR107W
1.2: yeast gene YDL107W, cells incubated two hours with the chemical substance | yeast gene YDR298C, cells incubated two hours with the chemical substance | yeast gene YEL020C | yeast gene YKL060C, cells incubated two hours with the chemical substance | yeast gene YML120C, cells incubated two hours with the chemical substance | yeast gene YMR073C, cells incubated two hours with the chemical substance | yeast gene YPL271W
1.3: yeast gene YMR205C, cells incubated two hours with the chemical substance
1.8: yeast gene YAL038W | yeast gene YAL054C | yeast gene YHL008C | yeast gene YKL150W | yeast gene YOR347C | yeast gene YPR006C
2.1: yeast gene YBR126C
5.9: yeast gene YDL174C
1.5: yeast gene YCR046C, cells incubated two hours with the chemical substance | yeast gene YEL011W | yeast gene YGL253W | yeast gene YGR062C, cells incubated two hours with the chemical substance, 25° C., YPD medium | yeast gene YKL085W, cells incubated two hours with the chemical substance | yeast gene YML087C | yeast gene YOR136W
2.2: yeast gene YAL060W | yeast gene YML125C
3.1: yeast gene YGR254W | yeast gene YNL331C
3.8: yeast gene YML100W
2.9: yeast gene YPL240C

Reference: patent US8192962B2, “Processes for detecting toxic substances” (Daikin Industries, Ltd., priority 2001, dated 2012)
